# Experimental data: a melting point compilation (Tetko et al.; mined from patent text by program, amines drawn as free bases though some values may be those of a salt)
row,Structure (SMILES),melting point [°C]
1,Cc1ccccc1CN1CCN(C2=NC3(C=CC(=O)C=C3)C(c3ccccc3)=C2)CC1,193
2,COc1ccc(Cc2ncc(C(=O)O)c3cc(OC)c(OC)cc23)cc1OC,235 to 236
3,CC(C)(C)N1CC(c2cccc(C(F)(F)F)c2)OCC1=O (centres undefined),81 to 83
4,CCn1nc(C(F)(F)F)c(CS(=O)(=O)C2=NOC(C)(CCl)C2)c1OC (centres undefined),139 to 140
5,O=C(O)c1cccc(-c2nc(-c3ccc(F)c(F)c3)cs2)c1,255 to 256
6,COc1cc(C=CC(=O)c2cccc(N(C)C)c2)cc(OC)c1,81.8 to 82.6
7,COc1ccc(-c2ccc(O)cc2C=O)cc1Cl,168 to 170
8,CCCCc1nc(=O)c2cc(-c3nnn(C(c4ccccc4)(c4ccccc4)c4ccccc4)n3)ccc2[nH]1,182
9,O=CNC1=CCc2cc(Cl)ccc21,155
10,O=S(=O)(Nc1ccccc1/C=C/c1ccncc1)c1ccc(OC(F)(F)F)cc1,151 to 153
11,O=C1c2cc(F)ccc2OCC1C(=O)C(F)(F)F (centres undefined),107 to 112
12,CCCc1nc2c(N)nc3cccnc3c2n1CC1(O)CCCC1,184 to 186
13,Cc1cc([N+](=O)[O-])ccc1N1CCN(C(=O)OC(C)(C)C)CC1,122 to 123
14,C[C@H](NC(=O)c1c[nH]c2ncc(-c3cn(-c4cc(Cl)ccc4F)cn3)nc12)C(C)(C)C,337 to 339
15,COC(=O)c1c(-c2ccc(C#N)cc2)cn(-c2ccc(Br)cc2)c1C(=O)OC,178 to 180
16,CC1=NC(=Cc2cccc(-c3ccc(Cl)cc3)c2)C(=O)O1,150
17,NC(=O)c1n[nH]c2ccc([N+](=O)[O-])cc12,221 to 226
18,Cc1c(C)c(NC(=O)CC(C)(C)C)c2c(c1C)C(=O)C(C)(C)O2,158 to 159
19,CCOC(=O)/C(=N\OCC#N)c1csc(N)n1,167 to 168
20,CC(C)(C)C(=O)C(CC(=O)c1ccc(Cl)cc1)n1cncn1 (centres undefined),116 to 119
21,Cc1cc(Br)cc(C=O)c1F,48 to 50
22,CCCCc1nc2ncccc2[nH]1,80
23,CN1CCN(Cc2c(-c3ccc4sc(=O)n(C)c4c3)nc3ccccn23)CC1,191 to 193
24,O=C(Nc1ccc(F)cc1)NN1CC=CCC1,156 to 157
25,C(=Cc1ccc(-c2noc3ccccc23)cc1)c1ccc(-c2nc(-c3ccccc3)no2)cc1,216 to 217

# Now from value to molecule:
row,melting point [°C],Structure (SMILES)
1,244 to 246,CCCC(=O)NCc1cccc2c1CN(C1CCC(=O)NC1=O)C2=O (centres undefined)
2,137 to 138,CC(Cl)C(=O)c1ccc(OCCCN2C(=O)c3ccccc3C2=O)cc1 (centres undefined)
3,220 to 222,O=C1CCC(N2Cc3c(OCc4ccc(C(=O)NCCN5CCCCC5)cc4)cccc3C2=O)C(=O)N1 (centres undefined)
4,159 to 160,CCCc1nn(C)c2c(=O)[nH]c(-c3cc(C(=O)CBr)ccc3OCC)nc12
5,113 to 116,CS(=O)(=O)c1ccc(-c2[nH]nc(OC3CCCCC3=O)c2-c2ccc(F)cc2)cc1 (centres undefined)
6,226,O=C(N1CCC(n2c(=O)[nH]c3ncccc32)CC1)n1ccnc1
7,268 to 270,Fc1ccc(-c2ccc(N3CCCN(c4ccc(-c5ccc(F)cc5)cn4)CC3)nc2)cc1
8,233 to 234,O=C1COc2ccc(C3=C(c4ccc(Cl)cc4Cl)C(=O)OC3)cc2N1
9,173,COc1ccc(S(=O)(=O)n2c(=O)n(-c3cccc(Cl)c3)c3cc(Cl)ccc32)c(OC)c1
10,174 to 177,CC(C)Oc1ccc2c(c1)C(=O)c1ccc(C(=O)O)cc1CC2
11,159 to 160,CC(=O)NCc1c(C)cc(CN2CCN(c3ccccc3)CC2)cc1C
12,153 to 155,CCOC(=O)c1ccc(OCCC2CCN(c3cc(Cl)nnc3Cl)CC2)cc1
13,94 to 96,CCCn1cc(Cc2ccc(C(=O)NS(=O)(=O)c3ccccc3C)cc2OC)c2cc(CCCC(=O)N(C)C)ccc21
14,132 to 137,COC(=O)c1ccccc1OCCOc1cccc2ccccc12
